Test results published in patent US7803930B2, “Antisense modulation of apolipoprotein B-expression” (Isis Pharmaceuticals, Inc., priority 2002, dated 2010).
In the oligonucleotide strings, read from the 5' end, every base follows the letter of its sugar. An asterisk marks phosphorothioate; unmarked linkages are phosphodiester. Other units and linkages are bracketed, terminal groups are in braces. A string of capitals states the bases alone. e = 2'-O-(2-methoxyethyl) (MOE); [5mC] = 5-methylcytosine; d = 2'-deoxy (DNA)

System: human apolipoprotein B mRNA
Experiment: Inhibition of human apolipoprotein B mRNA levels in HepG2 cells, quantitative real-time PCR
Format: cell-based
Conditions: HepG2 cells; human apolipoprotein B mRNA; oligonucleotides targeting genomic sequence SEQ ID NO 334; averages from two experiments
Summary of the method: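 HepG2 cells at 80% confluency were transfected with antisense oligonucleotide using 3.75 μg/mL Lipofectin in Opti-MEM for 4-7 h and harvested 16-24 h after treatment. Apolipoprotein B mRNA was measured by real-time RT-PCR and normalized to GAPDH or RiboGreen total RNA. Percent inhibition came from untreated-control standard curves.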

| Substance | % INHIB |
| --- | --- |
| 301130 (e[5mC]*eT*eG*eA*e[5mC]*dA*d[5mC]*dA*d[5mC]*d[5mC]*dA*dT*dG*dT*dT*eA*eT*eT*eA*eT; antisense) [compound 301130] | 10% |
| 301131 (e[5mC]*eT*eT*eT*eT*dT*d[5mC]*dA*dG*dA*d[5mC]*dT*dA*dG*dA*eT*eA*eA*eG*eA; antisense) [compound 301131] | 0% |
| 301132 (eT*e[5mC]*eA*e[5mC]*eA*d[5mC]*dT*dT*dA*d[5mC]*d[5mC]*dT*d[5mC]*dG*dA*eT*eG*eA*eG*eG; antisense) [compound 301132] | 29% |
| 301133 (eA*eA*eG*eA*eA*dA*dA*dT*dG*dG*d[5mC]*dA*dT*d[5mC]*dA*eG*eG*eT*eT*eT; antisense) [compound 301133] | 13% |
| 301134 (e[5mC]*e[5mC]*eA*eA*eG*d[5mC]*d[5mC]*dA*dA*dT*d[5mC]*dT*dG*dA*dG*eA*eA*eA*eG*eA; antisense) [compound 301134] | 25% |
| 301135 (eA*eA*eA*eT*eA*d[5mC]*dA*d[5mC]*dA*d[5mC]*d[5mC]*dT*dG*d[5mC]*dT*e[5mC]*eA*eT*eG*eT; antisense) [compound 301135] | 20% |
| 301136 (e[5mC]*eT*eT*e[5mC]*eA*d[5mC]*dA*dA*dA*dT*dA*d[5mC]*dA*d[5mC]*dA*e[5mC]*e[5mC]*eT*eG*e[5mC]; antisense) [compound 301136] | 20% |
| 301137 (eA*eG*eT*eG*eG*dA*dA*dG*dT*dT*dT*dG*dG*dT*d[5mC]*eT*e[5mC]*eA*eT*eT; antisense) [compound 301137] | 41% |
| 301138 (eT*eT*eG*e[5mC]*eT*dA*dG*d[5mC]*dT*dT*d[5mC]*dA*dA*dA*dG*eT*eG*eG*eA*eA; antisense) [compound 301138] | 44% |
| 301139 (eT*e[5mC]*eA*eA*eG*dA*dA*dT*dA*dA*dG*d[5mC]*dT*d[5mC]*d[5mC]*eA*eG*eA*eT*e[5mC]; antisense) [compound 301139] | 41% |
| 301140 (eG*e[5mC]*eA*eT*eA*d[5mC]*dA*dA*dG*dT*d[5mC]*dA*d[5mC]*dA*dT*eG*eA*eG*eG*eT; antisense) [compound 301140] | 34% |
| 301141 (eT*eA*e[5mC]*eA*eA*dG*dG*dT*dG*dT*dT*dT*d[5mC]*dT*dT*eA*eA*eG*eA*eA; antisense) [compound 301141] | 38% |
| 301142 (eA*eT*eG*e[5mC]*eA*dG*d[5mC]*d[5mC]*dA*dG*dG*dA*dT*dG*dG*eG*e[5mC]*e[5mC]*eT*eA; antisense) [compound 301142] | 54% |
| 301143 (eT*eT*eA*e[5mC]*e[5mC]*dA*dT*dA*dT*d[5mC]*d[5mC]*dT*dG*dA*dG*eA*eG*eT*eT*eT; antisense) [compound 301143] | 55% |
| 301144 (eG*e[5mC]*eA*eA*eA*dG*dG*dT*dA*dG*dA*dG*dG*dA*dA*eG*eG*eT*eA*eT; antisense) [compound 301144] | 32% |
| 301145 (eA*eA*eG*eG*eA*d[5mC]*d[5mC]*dT*dT*d[5mC]*dA*dG*d[5mC]*dA*dA*eA*eG*eG*eT*eA; antisense) [compound 301145] | 36% |
| 301146 (e[5mC]*eA*eT*eA*eG*dG*dA*dG*dT*dA*d[5mC]*dA*dT*dT*dT*eA*eT*eA*eT*eA; antisense) [compound 301146] | 23% |
| 301147 (eA*eT*eT*eA*eT*dG*dA*dT*dA*dA*dA*dA*dT*d[5mC]*dA*eA*eT*eT*eT*eT; antisense) [compound 301147] | 19% |
| 301148 (eA*eG*eA*eA*eA*dT*dT*dT*d[5mC]*dA*d[5mC]*dT*dA*dG*dA*eT*eA*eG*eA*eT; antisense) [compound 301148] | 31% |
| 301149 (eA*eG*e[5mC]*eA*eT*dA*dT*dT*dT*dT*dG*dA*dT*dG*dA*eG*e[5mC]*eT*eG*eA; antisense) [compound 301149] | 44% |
| 301150 (eG*eA*eA*eA*eG*dG*dA*dA*dG*dG*dA*d[5mC]*dT*dA*dG*e[5mC]*eA*eT*eA*eT; antisense) [compound 301150] | 39% |
| 301151 (e[5mC]*e[5mC]*eT*e[5mC]*eT*d[5mC]*d[5mC]*dA*dA*dT*d[5mC]*dT*dG*dT*dA*eG*eA*e[5mC]*e[5mC]*e[5mC]; antisense) [compound 301151] | 28% |
| 301152 (e[5mC]*eT*eG*eG*eA*dT*dA*dA*d[5mC]*dT*d[5mC]*dA*dG*dA*d[5mC]*e[5mC]*eT*eT*eT*eG; antisense) [compound 301152] | 40% |

| Substance | % INHIB |
| --- | --- |
| 301153 (eA*eG*eT*e[5mC]*eA*dG*dA*dA*dA*dA*d[5mC]*dA*dA*d[5mC]*d[5mC]*eT*eA*eT*eT*e[5mC]; antisense) [compound 301153] | 11% |
| 301154 (e[5mC]*eA*eG*e[5mC]*e[5mC]*dT*dG*d[5mC]*dA*dT*d[5mC]*dT*dA*dT*dA*eA*eG*eT*e[5mC]*eA; antisense) [compound 301154] | 31% |
| 301155 (eA*eA*eA*eG*eA*dA*dT*dT*dA*d[5mC]*d[5mC]*d[5mC]*dT*d[5mC]*d[5mC]*eA*e[5mC]*eT*eG*eA; antisense) [compound 301155] | 33% |
| 301156 (eT*e[5mC]*eT*eT*eT*d[5mC]*dA*dA*dA*d[5mC]*dT*dG*dG*d[5mC]*dT*eA*eG*eG*e[5mC]*eA; antisense) [compound 301156] | 39% |
| 301157 (eG*e[5mC]*e[5mC]*eT*eG*dG*d[5mC]*dA*dA*dA*dA*dT*dT*d[5mC]*dT*eG*e[5mC]*eA*eG*eG; antisense) [compound 301157] | 37% |
| 301158 (e[5mC]*eT*eA*e[5mC]*e[5mC]*dT*d[5mC]*dA*dA*dA*dT*d[5mC]*dA*dA*dT*eA*eT*eG*eT*eT; antisense) [compound 301158] | 28% |
| 301159 (eT*eG*e[5mC]*eT*eT*dT*dA*d[5mC]*d[5mC]*dT*dA*d[5mC]*d[5mC]*dT*dA*eG*e[5mC]*eT*eA*e[5mC]; antisense) [compound 301159] | 36% |
| 301160 (eA*e[5mC]*e[5mC]*eT*eT*dG*dT*dG*dT*dG*dT*d[5mC]*dT*d[5mC]*dA*e[5mC]*eT*e[5mC]*eA*eA; antisense) [compound 301160] | 49% |
| 301161 (eA*eT*eG*e[5mC]*eA*dT*dT*d[5mC]*d[5mC]*d[5mC]*dT*dG*dA*d[5mC]*dT*eA*eG*e[5mC]*eA*e[5mC]; antisense) [compound 301161] | 34% |
| 301162 (antisense e[5mC]*eA*eT*e[5mC]*eT*d[5mC]*dT*dG*dA*dG*d[5mC]*d[5mC]*d[5mC]*d[5mC]*dT*eT*eA*e[5mC]*e[5mC]*eA) [compound 301162] | 24% |
| 301163 (antisense eG*e[5mC]*eT*eG*eG*dG*d[5mC]*dA*dT*dG*d[5mC]*dT*d[5mC]*dT*d[5mC]*eT*e[5mC]*e[5mC]*e[5mC]*e[5mC]) [compound 301163] | 51% |
| 301164 (antisense eG*e[5mC]*eT*eT*eT*d[5mC]*dG*d[5mC]*dA*dG*d[5mC]*dT*dG*dG*dG*e[5mC]*eA*eT*eG*e[5mC]) [compound 301164] | 55% |
| 301165 (antisense eA*e[5mC]*eT*e[5mC]*e[5mC]*dT*dT*dT*d[5mC]*dT*dA*dT*dA*d[5mC]*d[5mC]*eT*eG*eG*e[5mC]*eT) [compound 301165] | 47% |
| 301166 (antisense eA*eT*eT*e[5mC]*eT*dG*d[5mC]*d[5mC]*dT*d[5mC]*dT*dT*dA*dG*dA*eA*eA*eG*eT*eT) [compound 301166] | 38% |
| 301167 (antisense e[5mC]*e[5mC]*eA*eA*eG*d[5mC]*d[5mC]*dT*d[5mC]*dT*dT*dT*dA*d[5mC]*dT*eG*eG*eG*e[5mC]*eT) [compound 301167] | 29% |
| 301168 (antisense e[5mC]*eA*e[5mC]*eT*e[5mC]*dA*dT*dG*dA*d[5mC]*d[5mC]*dA*dG*dA*d[5mC]*eT*eA*eA*eG*eA) [compound 301168] | 35% |
| 301169 (antisense eA*e[5mC]*e[5mC]*eT*e[5mC]*d[5mC]*d[5mC]*dA*dG*dA*dA*dG*d[5mC]*d[5mC]*dT*eT*e[5mC]*e[5mC]*eA*eT) [compound 301169] | 22% |
| 301170 (antisense eT*eT*e[5mC]*eA*eT*dA*dT*dG*dA*dA*dA*dT*d[5mC]*dT*d[5mC]*e[5mC]*eT*eA*e[5mC]*eT) [compound 301170] | 40% |
| 301171 (antisense eT*eA*eT*eT*eT*dA*dA*dT*dT*dT*dA*d[5mC]*dT*dG*dA*eG*eA*eA*eA*e[5mC]) [compound 301171] | 7% |
| 301172 (antisense eT*eA*eA*eT*eG*dT*dG*dT*dT*dG*d[5mC]*dT*dG*dG*dT*eG*eA*eA*eG*eA) [compound 301172] | 35% |
| 301173 (antisense e[5mC]*eA*eT*e[5mC]*eT*d[5mC]*dT*dA*dA*d[5mC]*d[5mC]*dT*dG*dG*dT*eG*eT*e[5mC]*e[5mC]*e[5mC]) [compound 301173] | 21% |
| 301174 (antisense eG*eT*eG*e[5mC]*e[5mC]*dA*dT*dG*d[5mC]*dT*dA*dG*dG*dT*dG*eG*e[5mC]*e[5mC]*eA*eT) [compound 301174] | 37% |
| 301175 (antisense eA*eG*e[5mC]*eA*eA*dA*dT*dT*dG*dG*dG*dA*dT*d[5mC]*dT*eG*eT*eG*e[5mC]*eT) [compound 301175] | 29% |
